Source: patent publication US20080139664A1, “ANTI-GLYCATION AGENTS FOR PREVENTING AGE-, DIABETES-, AND SMOKING-RELATED COMPLICATIONS” (NATIONAL RESEARCH COUNCIL OF CANADA, priority 2001, published 2008)
pIC50: −log10 of the molar value.

test system: lysozyme; assay: ESI-MS of lysozyme glycoforms after incubation with D-ribose; settings: lysozyme + 2D-ribose − 2H2O (14,569 Da); 37° C., 5 days;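 further: lysozyme incubated with D-ribose, with or without anti-glycation agents, then separated by reversed-phase HPLC and analysed by electrospray mass spectrometry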

Structure (SMILES)	Peak area as % of total area of all glycoforms, 14,569 [%]
O=c1c(O)c(-c2ccccc2)oc2cc(O)cc(O)c12 [Galangin]	4.3
N[C@@H](Cc1ccc(O)c(O)c1)C(=O)O [L-DOPA]	3.0
C[C@](N)(Cc1ccc(O)c(O)c1)C(=O)O [L-α-Methyl-DOPA]	2.7
O=C1C=C(O)C(=O)c2ccccc21 [Lawsone]	0.0
O=c1cc(-c2ccc(O)c(O)c2)oc2cc(O)cc(O)c12 [Luteolin]	5.2
CS(=O)(=O)Nc1ccc([N+](=O)[O-])cc1Oc1ccccc1 [Nimesulide]	5.2

same assay, conditions: lysozyme + 2D-ribose − 3H2O (14,551 Da); 37° C., 5 days

Structure (SMILES)	Peak area as % of total area of all glycoforms, 14,551 [%]
O=c1c(O)c(-c2ccccc2)oc2cc(O)cc(O)c12 [Galangin]	5.2
N[C@@H](Cc1ccc(O)c(O)c1)C(=O)O [L-DOPA]	0.7
C[C@](N)(Cc1ccc(O)c(O)c1)C(=O)O [L-α-Methyl-DOPA]	0.5
O=C1C=C(O)C(=O)c2ccccc21 [Lawsone]	0.0
O=c1cc(-c2ccc(O)c(O)c2)oc2cc(O)cc(O)c12 [Luteolin]	3.0
CS(=O)(=O)Nc1ccc([N+](=O)[O-])cc1Oc1ccccc1 [Nimesulide]	3.8

same assay, conditions: lysozyme + 2D-ribose − 5H2O (14,533 Da); 37° C., 5 days

Structure (SMILES)	Peak area as % of total area of all glycoforms, 14,533 [%]
O=c1c(O)c(-c2ccccc2)oc2cc(O)cc(O)c12 [Galangin]	2.2
N[C@@H](Cc1ccc(O)c(O)c1)C(=O)O [L-DOPA]	0.8
C[C@](N)(Cc1ccc(O)c(O)c1)C(=O)O [L-α-Methyl-DOPA]	0.1
O=C1C=C(O)C(=O)c2ccccc21 [Lawsone]	0.9
O=c1cc(-c2ccc(O)c(O)c2)oc2cc(O)cc(O)c12 [Luteolin]	3.9
CS(=O)(=O)Nc1ccc([N+](=O)[O-])cc1Oc1ccccc1 [Nimesulide]	2.3

same assay, conditions: lysozyme + 2D-ribose − 6H2O (14,515 Da); 37° C., 5 days

Structure (SMILES)	Peak area as % of total area of all glycoforms, 14,515 [%]
O=c1c(O)c(-c2ccccc2)oc2cc(O)cc(O)c12 [Galangin]	1.0
N[C@@H](Cc1ccc(O)c(O)c1)C(=O)O [L-DOPA]	0.7
C[C@](N)(Cc1ccc(O)c(O)c1)C(=O)O [L-α-Methyl-DOPA]	0.5
O=C1C=C(O)C(=O)c2ccccc21 [Lawsone]	0.8
O=c1cc(-c2ccc(O)c(O)c2)oc2cc(O)cc(O)c12 [Luteolin]	1.4
CS(=O)(=O)Nc1ccc([N+](=O)[O-])cc1Oc1ccccc1 [Nimesulide]	1.3

same assay, conditions: lysozyme + D-ribose − 2H2O (14,419 Da); 37° C., 5 days

Structure (SMILES)	Peak area as % of total area of all glycoforms, 14,419 [%]
O=c1c(O)c(-c2ccccc2)oc2cc(O)cc(O)c12 [Galangin]	10.2
N[C@@H](Cc1ccc(O)c(O)c1)C(=O)O [L-DOPA]	2.1
C[C@](N)(Cc1ccc(O)c(O)c1)C(=O)O [L-α-Methyl-DOPA]	1.5
O=C1C=C(O)C(=O)c2ccccc21 [Lawsone]	4.9
O=c1cc(-c2ccc(O)c(O)c2)oc2cc(O)cc(O)c12 [Luteolin]	6.3
CS(=O)(=O)Nc1ccc([N+](=O)[O-])cc1Oc1ccccc1 [Nimesulide]	7.6

same assay, conditions: lysozyme + D-ribose − 3H2O (14,401 Da); 37° C., 5 days

Structure (SMILES)	Peak area as % of total area of all glycoforms, 14,401 [%]
O=c1c(O)c(-c2ccccc2)oc2cc(O)cc(O)c12 [Galangin]	0.8
N[C@@H](Cc1ccc(O)c(O)c1)C(=O)O [L-DOPA]	1.8
C[C@](N)(Cc1ccc(O)c(O)c1)C(=O)O [L-α-Methyl-DOPA]	2.1
O=C1C=C(O)C(=O)c2ccccc21 [Lawsone]	0.0
O=c1cc(-c2ccc(O)c(O)c2)oc2cc(O)cc(O)c12 [Luteolin]	2.1
CS(=O)(=O)Nc1ccc([N+](=O)[O-])cc1Oc1ccccc1 [Nimesulide]	0.0

same assay, conditions: lysozyme + D-ribose − H2O (14,437 Da); 37° C., 5 days

Structure (SMILES)	Peak area as % of total area of all glycoforms, 14,437 [%]
O=c1c(O)c(-c2ccccc2)oc2cc(O)cc(O)c12 [Galangin]	20.2
N[C@@H](Cc1ccc(O)c(O)c1)C(=O)O [L-DOPA]	21.1
C[C@](N)(Cc1ccc(O)c(O)c1)C(=O)O [L-α-Methyl-DOPA]	18.3
O=C1C=C(O)C(=O)c2ccccc21 [Lawsone]	9.5
O=c1cc(-c2ccc(O)c(O)c2)oc2cc(O)cc(O)c12 [Luteolin]	21.2
CS(=O)(=O)Nc1ccc([N+](=O)[O-])cc1Oc1ccccc1 [Nimesulide]	22.6

same assay, conditions: lysozyme + D-ribose − H2O with one carboxymethylated Lys residue (14,496 Da); 37° C., 5 days

Structure (SMILES)	Peak area as % of total area of all glycoforms, 14,496 [%]
O=c1c(O)c(-c2ccccc2)oc2cc(O)cc(O)c12 [Galangin]	0.0
N[C@@H](Cc1ccc(O)c(O)c1)C(=O)O [L-DOPA]	1.2
C[C@](N)(Cc1ccc(O)c(O)c1)C(=O)O [L-α-Methyl-DOPA]	1.0
O=C1C=C(O)C(=O)c2ccccc21 [Lawsone]	0.0
O=c1cc(-c2ccc(O)c(O)c2)oc2cc(O)cc(O)c12 [Luteolin]	0.8
CS(=O)(=O)Nc1ccc([N+](=O)[O-])cc1Oc1ccccc1 [Nimesulide]	0.0

same assay, conditions: lysozyme with one carboxymethylated Lys residue (14,364 Da); 37° C., 5 days

Structure (SMILES)	Peak area as % of total area of all glycoforms, 14,364 [%]
O=c1c(O)c(-c2ccccc2)oc2cc(O)cc(O)c12 [Galangin]	4.1
N[C@@H](Cc1ccc(O)c(O)c1)C(=O)O [L-DOPA]	3.9
C[C@](N)(Cc1ccc(O)c(O)c1)C(=O)O [L-α-Methyl-DOPA]	3.5
O=C1C=C(O)C(=O)c2ccccc21 [Lawsone]	7.5
O=c1cc(-c2ccc(O)c(O)c2)oc2cc(O)cc(O)c12 [Luteolin]	1.1
CS(=O)(=O)Nc1ccc([N+](=O)[O-])cc1Oc1ccccc1 [Nimesulide]	3.4

same assay, conditions: unmodified lysozyme (14,305 Da); 37° C., 5 days

Structure (SMILES)	Peak area as % of total area of all glycoforms, 14,305 [%]
O=c1c(O)c(-c2ccccc2)oc2cc(O)cc(O)c12 [Galangin]	48.0
N[C@@H](Cc1ccc(O)c(O)c1)C(=O)O [L-DOPA]	64.7
C[C@](N)(Cc1ccc(O)c(O)c1)C(=O)O [L-α-Methyl-DOPA]	69.4
O=C1C=C(O)C(=O)c2ccccc21 [Lawsone]	74.3
O=c1cc(-c2ccc(O)c(O)c2)oc2cc(O)cc(O)c12 [Luteolin]	51.4
CS(=O)(=O)Nc1ccc([N+](=O)[O-])cc1Oc1ccccc1 [Nimesulide]	49.8

test system: bovine serum albumin (BSA); assay: Fluorescamine assay of free primary amino groups of BSA incubated with D-ribose; type: biochemical; settings: free primary amino group on BSA after 5 days at 37° C.; agent at 16.8 times IC50; 64% without agent
Description: Fluorescamine assay (Yeboah F. et al., J. Agric. Food Chem. 48, 2766-2774 (2000)) was performed on incubated mixtures of BSA and D-ribose, with or without the identified anti-glycation agents. The mixtures contained BSA (0.075 mM protein concentration or 4.53 mM of Lys residue concentration) and D-ribose (50 mM). […] The fluorescamine assay determines the number of free lysine residues of BSA. In this experiment, the final volume of the incubation mixtures was 10 mL and the incubation time was 5 days at 37° C. Prior to the fluorescamine assay, the proteins were isolated by reverse phase HPLC. The protein content was determined using the Bio-Rad protein determination reagent (Bradford method). The fluorescamine assay was done in triplicate.

Structure (SMILES)	Unreacted amino group [%]
O=c1c(O)c(-c2ccccc2)oc2cc(O)cc(O)c12 [Galangin]	64
N[C@@H](Cc1ccc(O)c(O)c1)C(=O)O [L-DOPA]	60
C[C@](N)(Cc1ccc(O)c(O)c1)C(=O)O [L-α-Methyl-DOPA]	47
O=C1C=C(O)C(=O)c2ccccc21 [Lawsone]	44
O=c1cc(-c2ccc(O)c(O)c2)oc2cc(O)cc(O)c12 [Luteolin]	60
CS(=O)(=O)Nc1ccc([N+](=O)[O-])cc1Oc1ccccc1 [Nimesulide]	69

test system: bovine serum albumin (BSA); assay: not given; settings: not given

Structure (SMILES)	pIC50
O=c1c(O)c(-c2ccccc2)oc2cc(O)cc(O)c12 [Galangin]	3.96
C[C@](N)(Cc1ccc(O)c(O)c1)C(=O)O [L-α-Methyl-DOPA]	4.14
O=C1C=C(O)C(=O)c2ccccc21 [Lawsone]	3.72
CS(=O)(=O)Nc1ccc([N+](=O)[O-])cc1Oc1ccccc1 [Nimesulide]	3.46

Second part, the compound after the results:

pIC50	Structure (SMILES)
4.12	N[C@@H](Cc1ccc(O)c(O)c1)C(=O)O [L-DOPA]
4.22	O=c1cc(-c2ccc(O)c(O)c2)oc2cc(O)cc(O)c12 [Luteolin]
